Test results taken from patent US20110245249A1, “Heterocyclically Substituted Anilinopyrimidines” (Bayer CropScience AG, priority 2008, published 2011).

How the values were obtained:
[1] = tested on: Production of Fumonisin FB1 by Fusarium proliferatum; experiment: Production of Fumonisin FB1 by Fusarium proliferatum; assay type: cell-based; details: FB1 in liquid medium after 6 days at 20° C., HPLC-MS/MS
Fusarium proliferatum = experiment: Growth of Fusarium proliferatum (OD620) in the fumonisin test; assay type: cell-based; details: for pI50 growth: OD620 at the beginning and after 6 days
[2] = logP by HPLC on reversed-phase columns (EEC Directive 79/831 Annex V.A8); assay type: physicochemical
Protocol: The logP values were measured in accordance with EEC Directive 79/831 Annex V.A8 by HPLC (High Performance Liquid Chromatography) on reversed-phase columns (C 18) using the methods below:
[a] The determination was carried out in the acidic range at pH 2.3 using the mobile phases 0.1% aqueous phosphoric acid and acetronitrile linear gradient from 10% acetonitrile to 95% acetronitrile. [b] The LC-MS determination in the acid range was carried out at pH 2.7 using the mobile phases 0.1% aqueous formic acid and acetonitrile (contains 0.1% formic acid) linear gradient from 10% acetonitrile to 95% acetonitrile. [c] The LC-MS determination in the neutral range was carried out at pH 7.8 using the mobile phases 0.001 molar aqueous ammonium bicarbonate solution and acetonitrile linear gradient from 10% acetonitrile to 95% acetonitrile.

Row | Compound | log p [b] ([2]; pH 2.7) | log p [c] ([2]; pH 7.8) | log p ([2]; pH 2.7) | log p ([2]; pH 7.8) | also measured
1 | Clc1cnc(Nc2cccc(C3OCCCO3)c2)nc1NC1CC1 [Example 5, 5-Chloro-N^4-cyclopropyl-N^2-[3-(1,3-dioxan-2-yl)phenyl]pyrimidine-2,4-diamine] |  |  |  |  | IC50 ([1]; Fusarium proliferatum, 144 h, read-out: pI50 Fum (converted)): 251 nM; IC50 (Fusarium proliferatum; Fusarium proliferatum, 144 h, read-out: pI50 growth): 794 nM; chromatographic logP ([2]; pH 2.7, log p [b]): 1.69; chromatographic logP ([2]; pH 2.7, logP (pH 2.7)): 1.69; chromatographic logP ([2]; pH 7.8, log p [c]): 2.83
2 | CC1(c2cccc(Nc3ncc(Cl)c(NC4CC4)n3)c2)OCCCO1 [Example 6] |  |  |  |  | pI50 growth (Fusarium proliferatum): 5.5
3 | CC1OC(c2cccc(Nc3ncc(Br)c(NC4CC4)n3)c2)OC1C (stereo not drawn) [Example 14] | 2.31 | 3.5 |  |  | pI50 growth (Fusarium proliferatum): 5.5
4 | CC1(C)COC(c2cccc(Nc3ncc(Br)c(NC4CC4)n3)c2)OC1 [Example 16] | 2.65 | 3.9 |  |  | pI50 Fum [1]: 6
5 | FC(F)(F)c1cnc(Nc2cccc(C3OCCO3)c2)nc1NC1CCC1 [Example 22] | 3.06 | 3.57 |  |  | pI50 growth (Fusarium proliferatum): 5.5
6 | CN(c1nc(Nc2cccc(C3OCCO3)c2)ncc1Cl)C1CC1 [Example 23] | 2.52 | 3.45 |  |  | pI50 growth (Fusarium proliferatum): 4.9
7 | COCC1COC(c2cccc(Nc3ncc(Cl)c(NC4CC4)n3)c2)O1 (stereo not drawn) [Example 28] | 2.21 | 2.81 |  |  | pI50 Fum [1]: 6.5
8 | FC(F)(F)c1cnc(Nc2cccc(C3OC4COCC4O3)c2)nc1NC1CC1 (stereo not drawn) [Example 111] |  | 2.87 |  |  | log p [a] ([2]; pH 2.3): 1.94
9 | FC(F)(F)c1cnc(Nc2cccc(C3OC4COCC4O3)c2)nc1NC1CCC1 (stereo not drawn) [Example 112] | 2.79 | 3.37 |  |  | 
10 | CCC1COC(c2cccc(Nc3ncc(C(F)(F)F)c(NC4CCC4)n3)c2)O1 (stereo not drawn) [Example 113] | 4.06 | 4.56 |  |  | 
11 | COCC1COC(c2cccc(Nc3ncc(Cl)c(NC4CCC4)n3)c2)O1 (stereo not drawn) [Example 114] | 2.09 | 3.42 |  |  | 
12 | COCC1COC(c2cccc(Nc3ncc(Br)c(NC4CCC4)n3)c2)O1 (stereo not drawn) [Example 115] | 2.19 | 3.61 |  |  | 
13 | C=CCOCC1COC(c2cccc(Nc3ncc(Cl)c(NC4CCC4)n3)c2)O1 (stereo not drawn) [Example 116] | 2.59 | 4.07 |  |  | 
14 | C=CCOCC1COC(c2cccc(Nc3ncc(Br)c(NC4CCC4)n3)c2)O1 (stereo not drawn) [Example 117] | 2.77 | 4.24 |  |  | 
15 | Clc1cnc(Nc2cccc(C3OC4COCC4O3)c2)nc1NC1CCC1 (stereo not drawn) [Example 118] | 1.77 | 3.04 |  |  | 
16 | Brc1cnc(Nc2cccc(C3OC4COCC4O3)c2)nc1NC1CCC1 (stereo not drawn) [Example 119] | 1.91 | 3.23 |  |  | 
17 | CC(C)(C)C1CCOC(c2cccc(Nc3ncc(Br)c(NC4CC4)n3)c2)O1 (stereo not drawn) [Example 120] | 3.34 | 4.7 |  |  | 
18 | CC(C)(C)C1CCOC(c2cccc(Nc3ncc(Cl)c(NC4CC4)n3)c2)O1 (stereo not drawn) [Example 121] | 3.16[b] |  |  |  | 
19 | CC(C)(C)C1CCOC(c2cccc(Nc3ncc(C(F)(F)F)c(NC4CC4)n3)c2)O1 (stereo not drawn) [Example 122] | 4.44 | 4.82 |  |  | 
20 | Clc1cnc(Nc2cccc(C3OCC4(CC4)CO3)c2)nc1NC1CC1 [Example 123] | 2.09 | 3.32 |  |  | 
21 | CC1CC(C(F)(F)F)OC(c2cccc(Nc3ncc(Cl)c(NC4CC4)n3)c2)O1 (stereo not drawn) [Example 124] | 2.84[b] |  |  |  | 

Row | Compound | log p [b] ([2]; pH 2.7) | log p [c] ([2]; pH 7.8) | log p ([2]; pH 2.7) | log p ([2]; pH 7.8) | also measured
22 | CCOC1COC(c2cccc(Nc3ncc(Cl)c(NC4CC4)n3)c2)OC1 (stereo not drawn) [Example 125] | 2.07 | 3.27 |  |  | 
23 | Clc1cnc(Nc2cccc(C3OCCCCO3)c2)nc1NC1CC1 [Example 126] | 2.14 | 3.48 |  |  | 
24 | Clc1cnc(Nc2cccc(C3OCCCS3)c2)nc1NC1CC1 (stereo not drawn) [Example 127] | 2.1 | 3.33 |  |  | 
25 | Fc1ccc(Nc2ncc(Cl)c(NC3CC3)n2)cc1C1OCCO1 [Example 128] | 1.75 | 2.88 |  |  | 
26 | CC1CC1Nc1nc(Nc2cccc(C3OCCO3)c2)ncc1C(F)(F)F (stereo not drawn) [Example 129] | 3.03 | 3.58 |  |  | 
27 | COCC1COC(c2cccc(Nc3ncc(C(F)(F)F)c(NC4CC4C)n3)c2)O1 (stereo not drawn) [Example 130] |  |  | 3.18 | 3.7 | 
28 | CC1CC1Nc1nc(Nc2cccc(C3OCCO3)c2)ncc1Br (stereo not drawn) [Example 131] |  |  |  | 3.33[c] | 
29 | COCC1COC(c2cccc(Nc3ncc(Br)c(NC4CC4C)n3)c2)O1 (stereo not drawn) [Example 132] |  |  | 2.19 | 3.52 | 
30 | CC1CC1Nc1nc(Nc2cccc(C3OCCCO3)c2)ncc1Br (stereo not drawn) [Example 133] |  |  | 2.18 | 3.53 | 
31 | C#CCNc1nc(Nc2cccc(C3OCCO3)c2)ncc1Cl [Example 134] |  |  | 1.58 | 2.37 | 
32 | Clc1cnc(Nc2ccc(C3OCCCO3)cc2)nc1NC1CC1 [Example 135] |  |  | 1.72 | 2.82 | 
33 | COc1ccc(Nc2ncc(C(F)(F)F)c(NC3CC3)n2)cc1C1OCCCO1 [Example 136] |  |  | 2.38 | 3.18 | 
34 | COc1ccc(Nc2ncc(Br)c(NC3CC3)n2)cc1C1OCCO1 [Example 138] |  |  | 1.5 | 2.7 | 
35 | COc1ccc(Nc2ncc(Br)c(NC3CCC3)n2)cc1C1OCCO1 [Example 139] |  |  | 1.79 | 3.29 | 
36 | Fc1ccc(Nc2ncc(Br)c(NC3CC3)n2)cc1C1OCCO1 [Example 141] |  |  | 1.89 | 2.98 | 
37 | Fc1ccc(Nc2ncc(Br)c(NC3CCC3)n2)cc1C1OCCO1 [Example 142] |  |  | 2.22 | 3.55 | 
38 | Fc1ccc(Nc2ncc(C(F)(F)F)c(NC3CC3)n2)cc1C1OCCO1 [Example 143] |  |  | 2.76 | 3.2 | 
39 | Fc1ccc(Nc2ncc(Cl)c(NC3CC3)n2)cc1C1OCCCO1 [Example 144] |  |  | 1.87 | 3.02 | 
40 | Fc1ccc(Nc2ncc(Br)c(NC3CC3)n2)cc1C1OCCCO1 [Example 145] |  |  | 2.01 | 3.16 | 
41 | Fc1ccc(Nc2ncc(Br)c(NC3CCC3)n2)cc1C1OCCCO1 [Example 146] |  |  | 2.3 | 3.75 | 
42 | Fc1ccc(Nc2ncc(C(F)(F)F)c(NC3CC3)n2)cc1C1OCCCO1 [Example 147] |  |  | 2.27 | 3.40 | 

Row | Compound | log p [b] ([2]; pH 2.7) | log p [c] ([2]; pH 7.8) | log p ([2]; pH 2.7) | log p ([2]; pH 7.8) | also measured
43 | CC(C)Nc1nc(Nc2cccc(C3OCCO3)c2)ncc1Cl [Example 148] |  |  | 1.7 | 3.04 | 
44 | CC(C)Nc1nc(Nc2cccc(C3OCCCO3)c2)ncc1Cl [Example 149] |  |  | 1.73 | 3.2 | 
45 | CCC1COC(c2cccc(Nc3ncc(Br)c(NC4CC4)n3)c2)O1 (stereo not drawn) [Example 150] |  |  |  | 3.68[c] | 
46 | Brc1cnc(Nc2cccc(C3OCCCO3)c2)nc1NC1CCC1 [Example 151] |  |  | 2.11 | 3.54 | 
47 | Clc1cnc(Nc2cccc(C3OCCCO3)c2)nc1NCC1CC1 [Example 152] |  |  | 1.87[b] |  | 
48 | FC(F)(F)c1cnc(Nc2cccc(C3OCCCO3)c2)nc1NC1CC1 [Example 153] |  |  | 2.71[b] |  | 
49 | CCOCCOCC1COC(c2cccc(Nc3ncc(Cl)c(NC4CC4)n3)c2)O1 (stereo not drawn) [Example 154] |  |  | 2.05 | 3.13 | 
50 | CC1CSC(c2cccc(Nc3ncc(C(F)(F)F)c(NC4CC4)n3)c2)S1 (stereo not drawn) [Example 155] |  |  | 4.14 | 4.44 | 
51 | Clc1cnc(Nc2cccc(C3OCC(CBr)O3)c2)nc1NC1CC1 (stereo not drawn) [Example 156] |  |  | 2.39 | 3.48 | 
52 | CC1CCC2OC(c3cccc(Nc4ncc(Cl)c(NC5CC5)n4)c3)OC12 (stereo not drawn) [Example 157] |  |  | 2.79 | 4.1 | 
53 | CC1(C)OC(c2cccc(Nc3ncc(Cl)c(NC4CC4)n3)c2)OC1(C)C [Example 158] |  |  | 2.78 | 4.13 | 
54 | CCC1(CO)COC(c2cccc(Nc3ncc(Cl)c(NC4CC4)n3)c2)OC1 (stereo not drawn) [Example 159] |  |  | 1.82 | 2.77 | 
55 | OCC1CSC(c2cccc(Nc3ncc(Cl)c(NC4CC4)n3)c2)S1 (stereo not drawn) [Example 160] |  |  |  | 2.72[c] | 
56 | CC1CSC(c2cccc(Nc3ncc(Cl)c(NC4CC4)n3)c2)S1 (stereo not drawn) [Example 161] |  |  | 2.79 | 4.14 | 
57 | OCC1CSC(c2cccc(Nc3ncc(Cl)c(NC4CCC4)n3)c2)S1 (stereo not drawn) [Example 162] |  |  | 1.93 | 3.14 | 
58 | CC1CSC(c2cccc(Nc3ncc(Cl)c(NC4CCC4)n3)c2)S1 (stereo not drawn) [Example 163] |  |  | 3.23 | 4.72 | 
59 | OCC1CSC(c2cccc(Nc3ncc(Br)c(NC4CCC4)n3)c2)S1 (stereo not drawn) [Example 164] |  |  | 2.11 | 3.28 | 
60 | CC1CSC(c2cccc(Nc3ncc(Br)c(NC4CCC4)n3)c2)S1 (stereo not drawn) [Example 165] |  |  | 3.49 | 4.92 | 
61 | OCC1CSC(c2cccc(Nc3ncc(Br)c(NC4CC4)n3)c2)S1 (stereo not drawn) [Example 166] |  |  | 1.89 | 2.85 | 
62 | CC1CSC(c2cccc(Nc3ncc(Br)c(NC4CC4)n3)c2)S1 (stereo not drawn) [Example 167] |  |  | 3.1 | 4.31 | 
63 | OCC1CSC(c2cccc(Nc3ncc(C(F)(F)F)c(NC4CC4)n3)c2)S1 (stereo not drawn) [Example 168] |  |  | 2.65 | 3.03 | 
